Measured values published in ChEMBL document CHEMBL1268900, “Discovery of 2-aminoimidazopyridine adenosine A(2A) receptor antagonists” (Bioorg Med Chem Lett, 2010).

How the values were obtained:
[1] = Selectivity for human adenosine A2A receptor over adenosine A1 receptor
Adenosine receptor A2a [2] = molecular target: Adenosine receptor A2a (Homo sapiens, UniProt P29274); assay: Displacement of [3H]SCH58261 from human recombinant A2A receptor expressed in HEK293 cells; assay type: cell-based
[3] = Metabolic stability in rat liver microsomes assessed as compound remaining after 30 mins; assay type: ADME, Microsome; conditions: read-out: Stability
Adenosine receptor A2a [4] = molecular target: Adenosine receptor A2a (Rattus norvegicus, UniProt P30543); assay: Antagonist activity at rat A2A receptor by cAMP functional assay
Sequence of Adenosine receptor A2a (Rattus norvegicus, UniProt P30543) (P30543 whole entry): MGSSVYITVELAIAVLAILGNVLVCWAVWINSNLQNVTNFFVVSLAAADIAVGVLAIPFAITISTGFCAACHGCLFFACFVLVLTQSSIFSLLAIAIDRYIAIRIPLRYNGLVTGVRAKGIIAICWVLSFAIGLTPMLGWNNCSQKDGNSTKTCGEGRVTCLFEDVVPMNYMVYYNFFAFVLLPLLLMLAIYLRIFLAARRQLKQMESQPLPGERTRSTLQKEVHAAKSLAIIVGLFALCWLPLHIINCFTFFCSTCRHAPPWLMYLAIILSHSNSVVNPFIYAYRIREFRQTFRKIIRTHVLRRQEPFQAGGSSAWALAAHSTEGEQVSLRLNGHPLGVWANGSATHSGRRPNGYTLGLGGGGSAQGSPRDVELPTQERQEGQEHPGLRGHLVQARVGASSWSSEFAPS

[5] = Metabolic stability in human liver microsomes assessed as compound remaining after 30 mins; assay type: ADME, Microsome; conditions: read-out: Stability
[6] = Plasma concentration in rat at 30 mg/kg, po after 1 hr; assay type: ADME, organism-based; set-up: dose 30 mg/kg, route oral
[7] = Drug level in rat brain at 30 mg/kg, po after 1 hr; assay type: ADME, organism-based; set-up: dose 30 mg/kg, route oral; conditions: read-out: Drug uptake
[8] = Plasma concentration in rat at 30 mg/kg, po after 4 hrs; assay type: ADME, organism-based; set-up: dose 30 mg/kg, route oral
[9] = Ratio of drug level in brain to plasma of rat at 30 mg/kg, po after 1 hr; assay type: ADME, organism-based; set-up: dose 30 mg/kg, route oral; conditions: read-out: BPR
[10] = Ratio of drug level in brain to plasma of rat at 30 mg/kg, po after 4 hrs; assay type: ADME, organism-based; set-up: dose 30 mg/kg, route oral; conditions: read-out: BPR
[11] = Drug level in rat brain at 30 mg/kg, po after 4 hrs; assay type: ADME, organism-based; set-up: dose 30 mg/kg, route oral; conditions: read-out: Drug uptake

Sequence of Adenosine receptor A2a (Homo sapiens, UniProt P29274) (P29274 whole entry): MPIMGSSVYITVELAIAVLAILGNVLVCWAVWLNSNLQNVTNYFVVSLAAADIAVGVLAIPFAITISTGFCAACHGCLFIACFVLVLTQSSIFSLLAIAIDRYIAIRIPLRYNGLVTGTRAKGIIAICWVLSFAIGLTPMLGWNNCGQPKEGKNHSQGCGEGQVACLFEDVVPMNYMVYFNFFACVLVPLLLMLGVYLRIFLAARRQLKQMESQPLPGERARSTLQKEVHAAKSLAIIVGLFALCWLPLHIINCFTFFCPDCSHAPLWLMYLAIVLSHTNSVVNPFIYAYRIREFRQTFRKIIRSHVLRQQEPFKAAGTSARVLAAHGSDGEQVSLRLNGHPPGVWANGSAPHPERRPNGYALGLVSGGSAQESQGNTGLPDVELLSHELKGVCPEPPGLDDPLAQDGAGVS

Ratio [1] | Ki (Adenosine receptor A2a [2]) | SMILES | further results
3 | 2590 nM | N#Cc1cccc(C(=O)Nc2nc3cc(C(=O)N4CCCCC4)cnc3n2Cc2ccc(F)cc2)c1 | –
131 | 17 nM | COCCCn1c(NC(=O)c2cccc(C#N)c2)nc2ccc(C(=O)N3CCCCC3)cc21 | remaining at 0.5 h [3]: 12%; Ki (Adenosine receptor A2a [4]): 85 nM; remaining at 0.5 h [5]: 19%
4 | 233 nM | N#Cc1cccc(C(=O)Nc2nc3cc(C(=O)N4CCCCC4)cnc3n2Cc2cccnc2)c1 | –
22 | 147 nM | Cn1c(NC(=O)c2cccc(C#N)c2)nc2cc(C(=O)N3CCCCC3)cnc21 | –
– | 48 nM | COCCCn1c(NC(=O)c2cccc(C#N)c2)nc2cc(C(=O)N3CCCCC3)ccc21 | remaining at 0.5 h [3]: 16%; remaining at 0.5 h [5]: 67%
– | 16 nM | CCN(CC)C(=O)c1cnc2c(c1)nc(NC(=O)c1cccc(C#N)c1)n2CCCOC | Ki (Adenosine receptor A2a [4]): 59 nM
80 | 12 nM | CCN(C)C(=O)c1ccc2nc(NC(=O)c3cccc(C#N)c3)n(CCCOC)c2n1 | concentration at 1 h [6]: 4630 ng/mL; concentration at 1 h [7]: 1050 ng/g; concentration at 4 h [8]: 2380 ng/mL; remaining at 0.5 h [3]: 52%; Ki (Adenosine receptor A2a [4]): 23 nM; Kp at 1 h [9]: 0.23; remaining at 0.5 h [5]: 52%; Kp at 4 h [10]: 0.19; concentration at 4 h [11]: 450 ng/g
– | 48 nM | CCCCNC(=O)c1ccc2c(c1)nc(NC(=O)c1cccc(C#N)c1)n2CCCOC | remaining at 0.5 h [3]: 38%; remaining at 0.5 h [5]: 27%
– | 439 nM | COCCCn1c(NC(=O)c2cccc(Cl)c2)nc2cc(C(=O)NCc3cccc(OC)c3)ccc21 | –
7 | 1220 nM | COc1ccc(Cn2c(NC(=O)c3cccc(C#N)c3)nc3cc(C(=O)N4CCCCC4)cnc32)cc1 | –
183 | 3.1 nM | CCN(CC)C(=O)c1ccc2nc(NC(=O)c3cccc(C#N)c3)n(CCCOC)c2c1 | remaining at 0.5 h [3]: 19%; Ki (Adenosine receptor A2a [4]): 16 nM; remaining at 0.5 h [5]: 36%
3 | 904 nM | CCCCCn1c(NC(=O)c2cccc(C#N)c2)nc2cc(C(=O)N3CCCCC3)cnc21 | –
– | 1670 nM | COCCCn1c(NC(=O)c2ccc(C#N)cc2)nc2cc(C(=O)NCc3cccc(OC)c3)ccc21 | –
– | 9.6 nM | COCCCn1c(NC(=O)c2cccc(C#N)c2)nc2cc(C(=O)N3CCCCC3)cnc21 | remaining at 0.5 h [3]: 36%; remaining at 0.5 h [5]: 90%
61 | 92 nM | COCCCn1c(NC(=O)c2cccc(C#N)c2)nc2cc(C(=O)N3CCOCC3)cnc21 | –
– | 2430 nM | COCCCn1c(NC(=O)c2cccc(C#N)c2)nc2cc(C(N)=O)cnc21 | –
– | 123 nM | COCCCn1c(NC(=O)c2cccc(C#N)c2)nc2cc(C(=O)N(C)C)cnc21 | –
– | 40 nM | CCCCNC(=O)c1cnc2c(c1)nc(NC(=O)c1cccc(C#N)c1)n2CCCOC | remaining at 0.5 h [3]: 73%; remaining at 0.5 h [5]: 95%

Ratio [1] | Ki (Adenosine receptor A2a [2]) | SMILES | further results
– | > 10000 nM | CC(C)OCCCn1c(NC(=O)c2cccc(C#N)c2)nc2cc(C(=O)N3CCOCC3)cnc21 | –
10 | 179 nM | N#Cc1cccc(C(=O)Nc2nc3cc(C(=O)N4CCCCC4)cnc3n2C2CCOCC2)c1 | –
– | 13 nM | COCCCn1c(NC(=O)c2cccc(C#N)c2)nc2cc(C(=O)N(C)C(C)C)cnc21 | Ki (Adenosine receptor A2a [4]): 12 nM
10 | 51 nM | N#Cc1cccc(C(=O)Nc2nc3cc(C(=O)N4CCCCC4)cnc3n2CCCO)c1 | –
9 | 1100 nM | CCOCCCn1c(NC(=O)c2cccc(C#N)c2)nc2cc(C(=O)N3CCOCC3)cnc21 | –
88 | 2.5 nM | COCCCn1c(NC(=O)c2cccc(C#N)c2)nc2ccc(C(=O)N(C)C(C)C)nc21 | remaining at 0.5 h [3]: 14%; Ki (Adenosine receptor A2a [4]): 4.3 nM; remaining at 0.5 h [5]: 25%
1.8 | 3300 nM | CCOCCn1c(NC(=O)c2cccc(C#N)c2)nc2cc(C(=O)N3CCOCC3)cnc21 | –
> 46 | 37 nM | CC(=O)NCCn1c(NC(=O)c2cccc(C#N)c2)nc2cc(C(=O)N3CCCCC3)cnc21 | –
– | > 10000 nM | COCCCn1c(NC(=O)c2cccc(C(F)(F)F)c2)nc2cc(C(=O)NCc3cccc(OC)c3)ccc21 | –
– | 210 nM | COCCCn1c(NC(=O)c2cccc(F)c2)nc2cc(C(=O)NCc3cccc(OC)c3)ccc21 | –
– | 46 nM | COCCCn1c(NC(=O)c2cccc(C#N)c2)nc2cc(C(=O)NCc3cccc(OC)c3)ccc21 | –
– | 4710 nM | COCCCn1c(NC(=O)c2ccccc2Cl)nc2cc(C(=O)NCc3cccc(OC)c3)ccc21 | –
– | 25 nM | CCN(C)C(=O)c1cnc2c(c1)nc(NC(=O)c1cccc(C#N)c1)n2CCCOC | concentration at 1 h [6]: 4360 ng/mL; concentration at 1 h [7]: 480 ng/g; concentration at 4 h [8]: 2290 ng/mL; Ki (Adenosine receptor A2a [4]): 24 nM; Kp at 1 h [9]: 0.11; Kp at 4 h [10]: 0.09; concentration at 4 h [11]: 210 ng/g
39 | 39 nM | N#Cc1cccc(C(=O)Nc2nc3cc(C(=O)N4CCCCC4)cnc3n2Cc2ccncc2)c1 | –
– | 2380 nM | COCCCn1c(NC(=O)c2cccc(OC)c2)nc2cc(C(=O)NCc3cccc(OC)c3)ccc21 | –
– | 6770 nM | COCCCn1c(N)nc2cc(C(=O)NCc3cccc(OC)c3)ccc21 | –
2 | 325 nM | COc1cccc(-n2c(NC(=O)c3cccc(C#N)c3)nc3cc(C(=O)N4CCCCC4)cnc32)c1 | –
